For assay [1], the system named is differentiated HL-60 cells. Briefly: migration activity (Chemotaxis Index) of differentiated HL-60 cells. The format is cell-based, human. On the procedure: (3) Measurement of Migration Activity
The cells were collected by centrifuging the suspension of the differentiated HL-60 cells (1,000 rpm, 5 minutes, 4° C.). After that, the following operation was repeated three times to wash the cells: 10% FBS-RPMI1640 was added to the cells; the mixture was suspended by inversion; and the mixture was centrifuged again (1,000 rpm, 5 minutes, 4° C.). Then, a medium (10% FBS-RPMI1640) was added so that a cell density was 4×10^6 cells/ml, thereby a cell suspension was prepared. Subsequently, 1 ml of each peptide solution (dissolved in 10% FBS-RPMI 1640) was transferred to each well of a 24-well plate, and the plate was incubated at 37° C. for 20 minutes. After that, 500 μl of the cell suspension (2×10^6 cells) were put in Chemotaxicell (KURABO […] LTD., 3 μm) and the Chemotaxicell was set in a plate, followed by incubation in the presence of 5% CO2 at 37° C. for 1 hour. Then, the Chemotaxicell was removed and the solution in each well of the plate was pipetted. The cells migrated to the plate side was suspended well and the number of the cells were measured. Note that the migration activity by the peptide was represented by a ratio of the number of the cells to the number of the cells passing the Chemotaxicell at the time of non-stimulation (Chemotaxis Index, CI).

For assay [2], the system named is HL-60 cells differentiated into the neutrophil-like cells. As to the kind of experiment: β-hexosaminidase-secreting activity of neutrophil-like differentiated HL-60 cells. The format is cell-based, human. As to conditions: for Activity (β-hexosaminidase-secreting activity class): lowest concentration class at which secretion was confirmed. The text has this: (1) Culture of Cell and Differentiation Into Neutrophil-like Cell
In this time, the cells were subcultured at a cell density of 1.0×10^5 cells/ml to 1.5×10^6 cells/ml, the number of cells was counted using a microscope, and the state of the cells was also confirmed.
The HL-60 cells were differentiated into neutrophil-like cells by setting the cell density in the flask to about 1.0×10^6 cells/ml, adding dibutylyl-cAMP (db-cAMP) as a differentiation-inducing agent so as to have a final concentration of 500 μM, and incubating the cells in the presence of CO2 at 37° C. for 3 days.
(2) Stimulation of Cell and Measurement of β-Hexosaminidase-secreting Activity
The cells were collected by centrifuging the suspension of the differentiated HL-60 cells (1,000 rpm, 5 minutes, 4° C.). After that, the following operation was repeated three times to wash the cells: Hepes buffered Hank's solution (HBHS) containing ice-cooled 0.1% BSA (1.2 mM CaCl2.2H2O, 5.4 mM KCl, 0.44 mM KH2PO4, 0.49 mM MgCl2.6H2O, 0.41 mM MgSO4.7H2O, 136.9 mM NaCl, 0.34 mM Na2HPO4, 10 mM Hepes, 4.2 mM NaHCO3, 5.5 mM D-glucose, pH 7.4) was added to the cells; the mixture was suspended by inversion; and the mixture was centrifuged again (1,000 rpm, 5 minutes, 4° C.). Subsequently, HBHS was added so that the mixture has a cell density of 5.6×10^6 cells/ml and suspended. Then, DNase I and cytochalasin B were each added so as to have a final concentration of 5 μg/ml, and the cell suspension was dispensed in an amount of 90 μl (5×10^5 cells) on ice. […] After the cell stimulation for 10 minutes, 100 μl of an ice-cooled stop solution (25 mM Tris, 123 mM NaCl, 2.7 mM KCl, pH 7.4) were added, and immediately, the mixture was centrifuged (5,000 rpm, 1 minute, 4° C.). 200 μl of the obtained supernatant were transferred to a new tube.
The amount of β-hexosaminidase released in the supernatant of the reaction solution was measured by an enzyme reaction using p-nitrophenyl-N-acetyl-μ-D-glucosaminide as a substrate (Non-patent Document 12). That is, the supernatant of the reaction solution was dispensed in an amount of 90 μl to a 96-well plate. 60 μl of a substrate solution (10 mM p-nitrophenyl-N-acetyl-μ-D-glucosaminide, 40 mM citrate, 70 mM Na2HPO4, pH 4.5) were added to each well, followed by incubation at 37° C. for 1 hour. After the reaction, 100 μl of a stop solution (0.4 M glycine, pH 10.7) were added to each well and a color of the released p-nitrophenol was developed. The color development was measured with a plate reader at adsorption at 405 nm (reference: 492 nm). The all amount of β-hexosaminidase contained in the cells was quantified by treating the cells with Triton X-100 having a final concentration of 0.05%. In addition, the amount of β-hexosaminidase secreted by stimulation of 10 μM fMLP was also measured, and the ratio of the secretion amount by stimulation with each peptide to the above sectretion amount by stimulation with fMLP.

Setting [3] is: differentiated HL-60 cells, read-out: EC50, β-hexosaminidase-secreting activity.
The mark [4] stands for this setting: neutrophil-like differentiated HL-60 cells, Table 1, read-out: EC50 (μM), β-hexosaminidase-secreting activity.
Where [5] appears, read: neutrophil-like differentiated HL-60 cells.

Like-named read-outs stand apart in the source and are kept apart here. Where a SMILES comes first, the peptide text is derived from it. Where no end group is shown, it is not given here.

The term EC50 denotes the concentration giving half of the maximal effect. For the molecule “MLWNLLALHQIGQRTISTASHRHFKNKVPEKQK [No. 032]”, the “concentration of migration activity compared with that of β-hexosaminidase-secreting activity” value in assay [1] is given as “confirmed at the concentration lower than the concentration at which β-hexosaminidase-secreting activity was confirmed”. Besides, in assay [2] (differentiated HL-60 cells), the “β-hexosaminidase-secreting activity of C-terminally extended peptide compared to the peptide before the extension” value is “higher activity compared to the peptides before the extension”. Also, the EC50 in assay [2] (setting [3]) is 0.15 µM.
As to “MFPLVKSALNRLQVRSIQQTMARQSHQKRT [No. 031]”, the “concentration of migration activity compared with that of β-hexosaminidase-secreting activity” value in assay [1] is “confirmed at the almost same concentration”. Besides, the “β-hexosaminidase-secreting activity of C-terminally extended peptide compared to the peptide before the extension” value in assay [2] (differentiated HL-60 cells) is recorded as “higher activity compared to the peptides before the extension”. Moreover, the EC50 in assay [2] (setting [3]) was 0.2 µM.
As to `CC[C@H](C)[C@H](NC(=O)[C@H](CS)NC(=O)[C@H](CC(C)C)NC(=O)[C@H](CCC(N)=O)NC(=O)[C@@H]1CCCN1C(=O)[C@H](CO)NC(=O)[C@H](Cc1ccccc1)NC(=O)[C@H](Cc1c[nH]cn1)NC(=O)[C@H](C)NC(=O)[C@H](CCCNC(=N)N)NC(=O)[C@H](CC(C)C)NC(=O)[C@H](CS)NC(=O)[C@H](Cc1c[nH]cn1)NC(=O)[C@H](CCCNC(=N)N)NC(=O)CNC(=O)[C@@H](NC(=O)[C@H](Cc1c[nH]cn1)NC(=O)[C@H](CCCNC(=N)N)NC(=O)[C@H](CC(C)C)NC(=O)[C@H](CC(C)C)NC(=O)[C@H](CC(C)C)NC(=O)[C@H](C)NC(=O)[C@H](C)NC(=O)[C@@H](N)CCSC)C(C)C)C(=O)N[C@@H](CCCNC(=N)N)C(=O)N[C@@H](CC(N)=O)C(=O)N[C@@H](C)C(=O)N[C@H](C(=O)N1CCC[C@H]1C(=O)N[C@@H](CC(C)C)C(=O)O)C(C)C` [No. 023] (H-MAALLLRHVGRHCLRAHFSPQLCIRNAVPL-OH; N-terminus and C-terminus assumed), in assay [1], the “concentration of migration activity compared with that of β-hexosaminidase-secreting activity” value is on record as “confirmed at the almost same concentration” and the “desensitization of migration activity with increasing concentration of the peptide” value was “subjected to desensitization completely”. Also, the EC50 in assay [2] (setting [3]) was 0.3 µM.
With MFRRPVLQVLRQFVRH [No. 037], in assay [1], the “concentration of migration activity compared with that of β-hexosaminidase-secreting activity” value is on record as “confirmed at the almost same concentration” and the “desensitization of migration activity with increasing concentration of the peptide” value is on record as “subjected to desensitization completely”. In addition, the EC50 in assay [2] (setting [3]) is 0.11 µM.
Consider MSVLTPLLLRGLTGSARRLPVPRAK [No. 007], for which, in assay [2] (setting [3]), the EC50 is 8 µM.
Turning to MQALRVSQALIRSFSSTARNR [compound 011], in assay [2] (setting [4]), the EC50 came to 1.7 µM. The “Activity (β-hexosaminidase-secreting activity class)” value in assay [2] (setting [5]) is “⊚ (a peptide in which the β-hexosaminidase-secreting activity was confirmed at a concentration of 300 nM or less)”.
Taken in the same sequence, the figures for “039 (MAASVVCRAATAGAQVLLRARRSPALLRTPALRS) [compound 039]” were > 40 µM and “● (a peptide in which the β-hexosaminidase-secreting activity was confirmed at a concentration of 10 μM or less)”.
The corresponding values for “MSVLTPLLLRGLTGSARRLPVPRAK [compound 007]” are 8 µM and “∘ (a peptide in which the β-hexosaminidase-secreting activity was confirmed at a concentration of 1 μM or less)”.
As to MFPLARNALSSLKIQSILQSMARH [No. 048], in assay [1], the “concentration of migration activity compared with that of β-hexosaminidase-secreting activity” value was “confirmed at the almost same concentration”. Further, the EC50 in assay [2] (setting [3]) was determined as 0.1 µM.
Consider “MLWNLLALHQIGQRTISTASHRHFKNKVPEKQK [compound 032]”, for which the EC50 in assay [2] (setting [4]) came out at 0.15 µM. In assay [2] (setting [5]), the “Activity (β-hexosaminidase-secreting activity class)” value was “⊚ (a peptide in which the β-hexosaminidase-secreting activity was confirmed at a concentration of 300 nM or less)”.
Taken in the same sequence, the figures for 013 (MALPLRPLTRGL) [compound 013] were > 30 µM and “● (a peptide in which the β-hexosaminidase-secreting activity was confirmed at a concentration of 10 μM or less)”.
As for “MALLTAAARLLGTKNASCLVLAARHAS [compound 050]”, the EC50 in assay [2] (setting [4]) came out at 7 µM. The “Activity (β-hexosaminidase-secreting activity class)” value in assay [2] (setting [5]) is “● (a peptide in which the β-hexosaminidase-secreting activity was confirmed at a concentration of 10 μM or less)”.
The corresponding values for “046 (MLPAALLRRPGLGRLVRHARAY) [compound 046]” are > 5 µM and “∘ (a peptide in which the β-hexosaminidase-secreting activity was confirmed at a concentration of 1 μM or less)”.
Turning to MLATRVFSLVGKRAISTSVCVR [compound 018], the EC50 in assay [2] (setting [4]) was 6.1 µM. For the same molecule, the “Activity (β-hexosaminidase-secreting activity class)” value in assay [2] (setting [5]) was “∘ (a peptide in which the β-hexosaminidase-secreting activity was confirmed at a concentration of 1 μM or less)”.
Taken in the same sequence, the figures for MAVVGVSSVSRLLGRSRPQLGRPM [compound 009] were 5 µM and “∘ (a peptide in which the β-hexosaminidase-secreting activity was confirmed at a concentration of 1 μM or less)”.
The corresponding values for “045 (MAAALLARASGPARRALCPRAWRQ) [compound 045]” are > 30 µM and “● (a peptide in which the β-hexosaminidase-secreting activity was confirmed at a concentration of 10 μM or less)”.
Taken in the same sequence, the figures for MFPLVKSALNRLQVRSIQQTMARQ [compound 015] were 0.38 µM and “⊚ (a peptide in which the β-hexosaminidase-secreting activity was confirmed at a concentration of 300 nM or less)”.
Turning to “MLRLPTVFRQMRPVSRVLAPHLTRAY [compound 024]”, the half-maximal effective concentration (EC50) in assay [2] (setting [4]) amounted to 1.1 µM. For the same molecule, the “Activity (β-hexosaminidase-secreting activity class)” value in assay [2] (setting [5]) is on record as “⊚ (a peptide in which the β-hexosaminidase-secreting activity was confirmed at a concentration of 300 nM or less)”.
Turning to MALRAKAEVCMAVPWLSLQRAQAL [compound 049], the EC50 in assay [2] (setting [4]) was 2 µM. In assay [2] (setting [5]), the “Activity (β-hexosaminidase-secreting activity class)” value is on record as “● (a peptide in which the β-hexosaminidase-secreting activity was confirmed at a concentration of 10 μM or less)”.
Taken in the same sequence, the figures for “MSVLTPLLLRGLTGSARRLPVPRAKIHSLPPEGK [compound 033]” were 6 µM and “∘ (a peptide in which the β-hexosaminidase-secreting activity was confirmed at a concentration of 1 μM or less)”.
Turning to “MSVLTPLLLRGLTGSARRLPVPRAKIHSLPPEGK [No. 033]”, the “β-hexosaminidase-secreting activity of C-terminally extended peptide compared to the peptide before the extension” value in assay [2] (differentiated HL-60 cells) is “higher activity compared to the peptides before the extension”. Moreover, the EC50 in assay [2] (setting [3]) turned out to be 6 µM.
